Where two headings read alike, the source gives them in different places.
Tests used:
healthy mice [1] = assay: Toxicity in healthy mice; type: in vivo; conditions: for well tolerated maximal dose: mice weighing about 25 g
Experimental: Accordingly, a well tolerated maximal dose for CCompound1 or CCompound3 in mice (weighing about 25 g) is […] which corresponds to a dose of 4.6 mg/kg. Therapeutically effective concentrations of CC compounds in humans will exert significant promoting effects on bone marrow regeneration without causing toxicity in other normal healthy tissues.

MXT mammary tumor = type: in vivo; conditions: for effect on body weight: MXT tumor-bearing, CP-treated mice, by day 22; for Total weight / Tumor weight / Body weight: CP 120-mg/kg i.p. x8 daily from day 6, CC compounds s.c. with each CP (1 and 3: 4.5-mg/kg, 26: 2.0-mg/kg); for Body weight: total minus tumor weight
Experimental: This experiment was designed to determine whether in a tumor model CC compounds could prevent cyclophosphamide-induced loss of body weight resulting from the depression of blood marrow function. Specified pathogen free (SPF) hygienic category colonies of first generation hybrid BDF1 (C57B1 female×DBA/2 male) adult female mice, weighing 23-24 g, were used. The animals were kept in macrolon cages at 22-24° C. (45-55% humidity), with a lighting regimen of 12/12 h light/dark. […] The animals used in these studies were cared for according to the “Guiding Principles for the Care and Use of Animals” based upon the Helsinki declaration.
MXT mammary tumor pieces (containing about 10^6 tumor cells) were implanted subcutaneously to develop the tumors. After six days when the tumor-bearing mice were first treated, the sizes of the tumors were in the 0.26-0.30 cm^3 range. All compounds used were dissolved in 0.9% sodium chloride and applied subcutaneously (CC compounds) or intraperitoneally (CP) in 50 μl volume. Tumor volume was determined by using calipers in three dimensions; this technique is well known to one having ordinary skill in the art. Tumor volume was calculated according to the generally accepted formula: V=a^2×b×π/6, where “a” and “b” mean the shortest and longest diameter, respectively, of the measured tumor.
In the first group, animals received no treatment. In the second group, mice were administered 120-mg/kg of CP on day 6 followed by seven consecutive daily treatments with the same dose. In the third group, each treatment with CP was associated with administration of 4.5-mg/kg of CCompound1. In the fourth group, each treatment with CP was associated with administration of 4.5-mg/kg of CCompound3. In the fifth group, each treatment with CP was associated with administration of 2.0-mg/kg of CCompound26. Each group included 7 mice. All data represent the average of 7 determinations (one determination with each mouse in the group).

healthy mice [2] = assay: Toxicity in healthy mice; type: in vivo; conditions: 1,000-1,500 μmole doses
[3] = system: cyclophosphamide-treated mice; assay: Blood profile in cyclophosphamide-treated mice; type: in vivo, C57B1 mice; conditions: for effect on blood profile (WBC, PTL): cyclophosphamide-treated mice, CCompound26 at a smaller dose than the two others
Experimental: Twelve week old female C57B1 mice were used for the experiments. Each drug was administered intraperitoneally once a day for 5 consecutive days. In the second, third, fourth and fifth groups, mice were administered 120 mg/kg of cyclophosphamide (CP). In a third group, mice were also administered 4.5 mg/kg of CCompound1. In a fourth group, mice were also administered 4.5 mg/kg of CCompound3. In a fifth group, mice were also administered 2.0 mg/kg of CCompound26. In the first group, mice received no treatment. Each group included 5 animals. After 3 hours of the last treatments (on day 5), blood samples were collected from the ocular venous plexus of ether-anesthetized mice by retro-orbital venipuncture in heparanized tubes. Complete cell counts (RBC, red blood cell; WBC, white blood cell; PTL, platelet) were determined with a Sysmex F-800 hematology analyzer (To a Medical Electronics Co. LTD, Kobe, Japan). All data shown in Table 2 are the average of 5 independent determinations.

human cancer patients = conditions: following stem cell transplantation; cited from earlier work
[4] = single 450 μmole (about 4.6 mg/kg) or daily 400 μmole for 5 consecutive days
[5] = i.p. once a day for 5 days, CP 120 mg/kg, CCompound1, 3: 4.5 mg/kg, CCompound26: 2.0 mg/kg, blood 3 hours after last treatment (day 5), 5 animals
[6] = day 6 after tumor transplantation (first treatment day)
[7] = day 8 after tumor transplantation
[8] = day 11 after tumor transplantation
[9] = day 15 after tumor transplantation
[10] = day 18 after tumor transplantation
[11] = day 22 after tumor transplantation

CC[N+](C)(CC)CCOCc1ccc2sc3ccccc3c(=O)c2c1.[I-] [CCcompound3]
well tolerated maximal dose (healthy mice [1]): 450 μmole/animal | well tolerated maximal dose (healthy mice [1]; corresponds to 450 μmole/animal): 4.6 mg/kg | change in the composition of various blood constituents (healthy mice [1]; [4]): did not cause any significant change | pathological alterations in the liver, brain, kidney, heart, spleen, intestine, and lung (healthy mice [1]; [4]): did not induce significant pathological alterations | solubility in water (Solubility in water): soluble in water | effect on body weight (MXT mammary tumor): body weight gain | tissue alterations at high doses (healthy mice [2]): mild parenchymal degeneration in the heart, focal hypostasis and chronic bronchopneumonia

O=P1(N(CCCl)CCCl)NCCCO1 (centres unmarked) [CP, cyclophosphamide]
effect on blood profile (WBC, PTL) [3]: decreases both WBC and PTL numbers | PTL [3, 5]: 404 ± 55 ×10^3/μl | RBC [3, 5]: 8.1 ± 0.9 ×10^6/μl | WBC [3, 5]: 3.2 ± 0.7 ×10^6/μl | effect on tumor weight (MXT mammary tumor; MXT tumor model): effectively decreased tumor weight | effect on body weight (MXT mammary tumor): lost significant amounts of weight | Total weight (MXT mammary tumor; [6]): 22.4 grams | Tumor weight (MXT mammary tumor; [6]): 0.2 grams | Body weight (MXT mammary tumor; [6]): 22.2 grams | Total weight (MXT mammary tumor; [7]): 21.8 grams | Tumor weight (MXT mammary tumor; [7]): 0.2 grams | Body weight (MXT mammary tumor; [7]): 21.6 grams | Total weight (MXT mammary tumor; [8]): 20.2 grams | Tumor weight (MXT mammary tumor; [8]): 0.1 grams | Body weight (MXT mammary tumor; [8]): 20.1 grams | Total weight (MXT mammary tumor; [9]): 19.9 grams | Tumor weight (MXT mammary tumor; [9]): 0.2 grams | Body weight (MXT mammary tumor; [9]): 19.7 grams | Total weight (MXT mammary tumor; [10]): 18.8 grams | Tumor weight (MXT mammary tumor; [10]): 0.1 grams | Body weight (MXT mammary tumor; [10]): 18.7 grams | Total weight (MXT mammary tumor; [11]): 18.1 grams | Tumor weight (MXT mammary tumor; [11]): 0.1 grams | Body weight (MXT mammary tumor; [11]): 18.0 grams

C=CC[N+](CC)(CC)CC/C=C1/c2ccccc2Sc2ccc(C)cc21.[Br-] [CCcompound26, N,N-Diethyl-N-allyl-3-(2-methyl-9H-thioxanthen-9-ylidene)-propane-1-aminium bromide]
effect on cyclophosphamide-induced decrease in white blood cell and platelet counts ([3]; 2.0 mg/kg): partially reversed | effect on blood profile (WBC, PTL) [3]: least effective | solubility in water (Solubility in water): water-soluble | toxic effects at the effective dose (MXT mammary tumor; 2.0 mg/kg, inferred from prevented body weight loss): does not exert significant toxic effects | effect on body weight (MXT mammary tumor): prevented body weight loss

B1: granulocyte-colony stimulating factor (protein, UniProt P09919 31-207, looked up)
Granulocyte …: TPLGPASSLPQSFLLKCLEQVRKIQGDGAALQEKLVSECATYKLCHPEELVLLGHSLGIPWAPLSSCPSQALQLAGCLSQLHSGLFLYQGLLQALEGISPELGPTLDTLQLDVADFATTIWQQMEELGMAPALQPTQGAMPAFASAFQRRAGGVLVASHLQSFLEVSYRVLRHLAQP
notes: cytokine that can reduce the duration and severity of cyclophosphamide-induced neutropenia
time to recover the platelet count to about 100,000 per 1 μl (human cancer patients): about 14 days | time to recover the white blood cell count to 2,500 per 1 μl (mm^3) (human cancer patients): about 10 days

— US7781423B2, “Compounds to promote regeneration of bone marrow” (priority 2007, dated 2010)
